Results: patent US20240374626A1, “METHODS OF ENHANCING MILK PRODUCTION IN LACTATING MAMMALIAN SUBJECTS” (priority 2023, published 2024)

Tests used:
Csn2 = test: Contralateral intraductal injection: Csn2 expression in MGs by RT-qPCR; assay type: in vivo, mouse
Method: Nulliparous analysis was performed using adult (10-12-week-old) female mice. For timed pregnancies and lactation analysis, CD-1 pregnant adult females were obtained from Charles Rivers. Embryos were examined at the time of mammary gland harvesting to confirm pregnancy state. […] Plugged mice were considered to be PD0.5 on the day of the observed plug. All females used in this study were age matched.
Mice were anesthetized with isoflurane (VetOne, 501017) Prior to intraductal injections, hair was removed from around the nipples using Nair hair remover. Injections into the duct of the nipple were performed with 33 G needles (Hamilton, 7803-05) and a volume of 40 μl per gland. Right inguinal, abdominal and thoracic glands were injected with doxorubicin (1.5 μg per gland, Cayman Chemical, 15007), nucleosides (40 μl per gland, Millipore-Sigma, ES-008-D) or Mk-1775 (50 μg per gland, Cayman Chemical, 21266), and left glands were injected with PBS or DMSO (Thermo Scientific, BP231) diluted in PBS.
For RNA isolation from FACS purified populations, mammary gland cell suspensions were blocked using Mouse BD Fc Block™ (BD Biosciences) for 10 min. Cells were subsequently resuspended on 1×PBS at a density of 10^7 cells/ml and stained with the following antibodies for 30 min on ice: anti-CD24 PE (Stem Cell Technologies, 60099PE.1), anti-CD29 PE-Cy7 (BioLegend, 102222), anti-CD45-APC (BioLegend,105826), Ter119-APC (BD Biosciences, 561033), CD31-ACP (BD Biosciences, 551262). Propidium iodide at a final concentration of 0.5 μg/ml was used for the discrimination of dead cells. Stromal, basal and luminal mammary populations were sorted using a BD FACS Aria II Cell Sorter. […] Total RNA quality was analyzed by agarose gel electrophoresis and quantified using an ND-1000 spectrophotometer (NanoDrop). cDNA was prepared from 500-1000 ng of total RNA using iScript cDNA synthesis kit (Bio-Rad, 1708841). Quantitative RT-qPCR was performed in triplicates using SsoAdvanced Universal SYBR Green Supermix, (Bio-Rad, 1725272). […]

HC11 cells = test: FACS DNA content analysis of HC11 cells during lactogenic differentiation; assay type: cell-based, mouse; details: HC11, doxorubicin 50 nM
Method: The HC11 cell line was obtained from American Type Culture Collection (ATCC) and routinely checked for mycoplasma (Mycoplasma PCR kit, ABM, G238). Undifferentiated HC11 cells were cultured in growing medium (RPMI-1640; Thermo Fisher Scientific, 72400047), supplemented with 10% FBS, 5 μg/ml insulin (Millipore-Sigma, 16634), 10 ng/ml epidermal growth factor (EGF; Preprotech, AF-100-15) and 1× AntiAnti (Thermo Fisher Scientific, 15240112) at 37° C. with 5% CO2. Cells were grown to confluency and maintained in growing medium for 2 days, until they became competent. Competent HC11 cells were primed for differentiation by culturing them in priming medium [RPMI-1640 supplemented with 5 μg/ml insulin, 1 μM dexamethasone (Millipore-Sigma, D4902-1 G) and 1× Anti-Anti] for 24 h at 37° C. with 5% CO2. To induce differentiation, primed HC11 cells were cultured in DIP Medium [RPMI-1640, supplemented with 10% FBS, 5 μg/ml insulin, 1 μM dexamethasone, 1× anti-anti and 3 μg/ml Prolactin (NHPP, oPRL-21)] at 37° C. with 5% CO2.
[…] Drugs were maintained through the differentiation process and added with every change of media.
For DNA content analysis of the mammary gland CK8^+ epithelial population, mammary gland cells suspension was obtained as described above. Cells were fixed in ice-cold 70% EtOH at a final concentration of 10^6 cells/ml. During fixation, cells were vigorously vortexed for 1 min to avoid the formation of cell aggregates. Cells were washed twice with washing buffer [1×PBS containing 5% FBS and 0.5% tween 20 (Fisher Chemical, BP337500)] and centrifuged at 2,000 rpm for 5 min at 4° C. Cell pellet was incubated for 1 h at room temperature with anti-CK8 (Developmental Studies Hybridoma Lab, TROMA-1), anti-GFP (Thermo Fisher, A01704) or corresponding rat (Thermo-Fisher, 10700) or rabbit (Thermo-Fisher, 10500C) IgG isotype controls. Cells were washed twice and incubated for 1 h at room temperature in darkness with FITC anti-Rat (Thermo Fisher, A24544) or FITC anti-Rabbit (Thermo Fisher, A16030) and APC anti-Rat (Jackson ImmunoResearch, 712-136-153). Cells were washed twice and resuspended in propidium iodide solution [1×PBS containing 25 μg/ml of propidium iodide (Thermo Fisher, P3566) and 100 μg/ml of RNAse (Thermo Fisher, 12091021)]. For DNA content analysis on HC11, cells were washed with 1×DPBS (GIBCO, 14190-250) and harvested using 0.05% Trypsin-EDTA (GIBCO, 25300-062). Cell suspension was washed with 1×DPBS and centrifuged at 1,000 rpm for 5 min at 4° C. Cell pellet was fixed in ice-cold 70% EtOH and then vortexed vigorously to avoid cell aggregates. After fixation, cells were washed with washing buffer [1×PBS (GIBCO, 14190136) supplemented with 5% FBS] and centrifuged at 2,000 rpm for 5 min at 4° C. The pellet was resuspended in propidium iodide solution. Cell suspensions were filtered through a 70 μm cell strainer (Falcon, 08-771-2) and analyzed using a BD LSRII cytometer or a BD FACS Aria II Cell Sorter. Populations were analyzed using FlowJo.

| Compound | milk production as Csn2 expression, RT-qPCR (Csn2; doxorubicin IDI at PD12.5 vs contralateral DMSO, PD17.5 MGs) | polyploidization (FACS DNA content) (HC11 cells; DIP3) | proportion of tetraploid cells (FACS DNA content) (HC11 cells; after 24 h) | Csn2 expression, RT-qPCR (Csn2; Mk-1775 IDI at PD16.5 vs contralateral DMSO, LD2 or LD5 MGs) |
| --- | --- | --- | --- | --- |
| COc1cccc2c1C(=O)c1c(O)c3c(c(O)c1C2=O)C[C@@](O)(C(=O)CO)C[C@@H]3O[C@H]1C[C@H](N)[C@H](O)[C@H](C)O1 [doxorubicin] | increase | increase in polyploidization | increases |  |
| C=CCn1c(=O)c2cnc(Nc3ccc(N4CCN(C)CC4)cc3)nc2n1-c1cccc(C(C)(C)O)n1 [Mk-1775] |  |  |  | decrease |
